We go through one substance from patent publication US8372617B2, “β-galactoside-α2,6-sialyltransferase, a gene encoding thereof, and a method for enhancing enzyme activity” (Japan Tobacco Inc., priority 2007, dated 2013).

“And” between values parts separate entries of the source, which are not always exact repeats. Equal values may be shown once.

In this experiment the test system is recombinant β-galactoside-α2,6-sialyltransferase N1C0. Description: Transfer of sialic acid to glycoproteins. The class given is biochemical, Photobacterium leiognathi. To be noted: enzyme +; 30° C. for 0.5 hours. The method, then: As a glycosyl acceptor substrate, asialofetuin and asialomucin were each used. Asialofetuin or asialomucin (2 mg) was dissolved in 1 ml of 20 mM Bis-Tris buffer (pH 7.0) and used as a glycosyl acceptor substrate solution. As a glycosyl donor substrate, CMP-NeuAc was used. The glycosyl acceptor substrate solution (40 μl), the glycosyl donor substrate (5 μl) and the enzyme solution (5 μl) were mixed and incubated at 30° C. for 0.5 hours to cause sialic acid transfer reaction. After completion of the reaction, the reaction solution was gel-filtered by being applied to a Sephadex G-50 Superfine (0.8×18.0 cm) equilibrated with 0.1 M sodium chloride. A glycoprotein-containing eluate fraction (2-4 ml fraction) from gel filtration was collected and measured for its radioactivity using a liquid scintillation counter to quantify sialic acid transferred to the glycosyl acceptor substrate.
Chain of recombinant β-galactoside-α2,6-sialyltransferase N1C0 (as listed by the source): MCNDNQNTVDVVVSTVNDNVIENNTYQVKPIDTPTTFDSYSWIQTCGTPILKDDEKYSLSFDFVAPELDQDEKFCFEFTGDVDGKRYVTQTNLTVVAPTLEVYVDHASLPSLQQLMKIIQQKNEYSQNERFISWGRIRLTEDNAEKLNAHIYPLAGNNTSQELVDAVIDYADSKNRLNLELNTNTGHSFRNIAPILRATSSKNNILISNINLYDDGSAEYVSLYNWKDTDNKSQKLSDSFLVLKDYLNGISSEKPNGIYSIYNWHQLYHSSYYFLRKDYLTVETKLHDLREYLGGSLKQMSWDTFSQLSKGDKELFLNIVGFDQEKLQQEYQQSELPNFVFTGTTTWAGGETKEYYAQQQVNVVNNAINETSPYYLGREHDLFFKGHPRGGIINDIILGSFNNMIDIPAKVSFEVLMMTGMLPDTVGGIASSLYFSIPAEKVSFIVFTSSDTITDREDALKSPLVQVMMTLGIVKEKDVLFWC

Consider “Asialofetuin: glycoprotein used as glycosyl acceptor substrate”, for which the “NeuAc transferred (cpm)” value is 2140 cpm and 2038 cpm.
